Results taken from patent publication US6599932B1, “Alpha, beta-unsaturated sulfones for treating proliferative disorders” (Temple University-Of The Commonwealth System of Higher …, priority 2000, dated 2003).

Columns and labels:
Type in all cases: cell-based
Set-up in all cases: dose or concentration left out as unconfirmed
[1] = system: colorectal carcinoma cell line DLD-1; assay: Viability assay, Trypan blue exclusion, colorectal carcinoma cell line DLD-1; details: for cytotoxicity: Homo sapiens, DLD-1, 96 hours, read-out: percent cell death (% Death), DLD-1; for percent cell death (% Death), DLD-1: 96 hours
Description: (§1) The effect of the sulfones on normal fibroblasts and on tumor cells of prostate, colon, lung and breast origin was examined utilizing the following cell lines: prostate tumor cell line DU-145; colorectal carcinoma cell line DLD-1; non-small cell lung carcinoma cell line H157; and breast tumor cell line BT-20. BT-20 is an estrogen-unresponsive cell line. NIH/3T3 and HFL are normal murine and human fibroblasts, respectively. BT-20, DLD-1 and H157 were grown in Dulbecco's modified Eagle's medium (DMEM) containing 10% fetal bovine serum supplemented with penicillin and streptomycin. DU145 was cultured in RPMI with 10% fetal bovine serum containing penicillin and streptomycin. NIH3T3 and HFL cells were grown in DMEM containing 10% calf serum supplemented with penicillin and streptomycin. All cell cultures were maintained at 37° C. in a humidified atmosphere of 5% CO2.
(§2) Cells were treated with test compound […] concentration and cell viability was determined after 96 hours by the Trypan blue exclusion method. Activity for each compound is reported as a range of cell induced death (% Death) with the lowest activity in the range of 5-10%.

[2] = system: prostate tumor cell line DU-145; assay: Viability assay, Trypan blue exclusion, prostate tumor cell line DU-145; details: for cytotoxicity: Homo sapiens, DU-145, 96 hours, read-out: percent cell death (% Death), DU145; for percent cell death (% Death), DU145: 96 hours
Description: as §1, §2

[3] = system: breast tumor cell line BT-20; assay: Viability assay, Trypan blue exclusion, breast tumor cell line BT-20; details: for cytotoxicity: Homo sapiens, BT-20, 96 hours, read-out: percent cell death (% Death), BT20; for percent cell death (% Death), BT20: 96 hours
Description: as §1, §2

[4] = system: non-small cell lung carcinoma cell line H157; assay: Viability assay, Trypan blue exclusion, non-small cell lung carcinoma cell line H157; details: for cytotoxicity: Homo sapiens, NCI-H157, 96 hours, read-out: percent cell death (% Death), H157; for percent cell death (% Death), H157: 96 hours
Description: as §1, §2

| SMILES | cytotoxicity [1] [%] | cytotoxicity [2] [%] | cytotoxicity [3] [%] | cytotoxicity [4] [%] | percent cell death (% Death), DLD-1 [1] | percent cell death (% Death), DU145 [2] | percent cell death (% Death), BT20 [3] | percent cell death (% Death), H157 [4] |
| --- | --- | --- | --- | --- | --- | --- | --- | --- |
| O=S(=O)(/C=C/c1ccccn1)Cc1ccc(F)cc1 [Example 1, (E)-2-Pyridineethenyl-4-fluorobenzylsulfone] | 5 to 10 | 5 to 10 | 5 to 10 | 5 to 10 | – | – | – | – |
| O=S(=O)(/C=C/c1cccnc1)Cc1ccc(F)cc1 [Example 2, (E)-3-Pyridineethenyl-4-fluorobenzylsulfone] | 5 to 10 | 5 to 10 | 5 to 10 | 5 to 10 | – | – | – | – |
| O=S(=O)(/C=C/c1ccccn1)Cc1ccc(Cl)cc1 [Example 4, (E)-2-Pyridineethenyl-4-chlorobenzylsulfone] | 5 to 10 | 5 to 10 | 5 to 10 | 5 to 10 | – | – | – | – |
| O=S(=O)(/C=C/c1cccnc1)Cc1ccc(Cl)cc1 [Example 5, (E)-3-Pyridineethenyl-4-chlorobenzylsulfone] | 5 to 10 | 5 to 10 | 5 to 10 | 5 to 10 | – | – | – | – |
| O=S(=O)(/C=C/c1ccncc1)Cc1ccc(Cl)cc1 [Example 6, (E)4-Pyridineethenyl4-chlorobenzylsulfone] | 5 to 10 | 5 to 10 | 5 to 10 | 5 to 10 | – | – | – | – |
| O=S(=O)(/C=C/c1ccccn1)Cc1ccc(Br)cc1 [Example 7, (E)-2-Pyridineethenyl-4-bromobenzylsulfone] | 5 to 10 | 5 to 10 | 5 to 10 | 5 to 10 | – | – | – | – |
| O=S(=O)(/C=C/c1cccnc1)Cc1ccc(Br)cc1 [Example 8, (E)-3-Pyridineethenyl-4-bromobenzylsulfone] | 10 to 15 | 10 to 15 | 10 to 15 | 10 to 15 | – | – | – | – |
| O=S(=O)(/C=C/c1ccncc1)Cc1ccc(Br)cc1 [Example 9, (E)-4-Pyridineethenyl-4-bromobenzylsulfone] | 5 to 10 | 5 to 10 | 5 to 10 | 5 to 10 | – | – | – | – |
| O=S(=O)(/C=C/c1cccs1)Cc1ccc(F)cc1 [Example 10, (E)-2-Thiopheneethenyl-4-fluorobenzylsulfone] | 5 to 10 | 5 to 10 | 5 to 10 | 5 to 10 | – | – | – | – |
| O=S(=O)(/C=C/c1cccs1)Cc1ccc(Cl)cc1 [Example 11, (E)-2-Thiopheneethenyl4-chlorobenzylsulfone] | 5 to 10 | 5 to 10 | 5 to 10 | 5 to 10 | – | – | – | – |
| O=S(=O)(/C=C/c1cccs1)Cc1ccc(Br)cc1 [Example 12, (E)-2-Thiopheneethenyl-4-bromobenzylsulfone] | 5 to 10 | 5 to 10 | 5 to 10 | 5 to 10 | – | – | – | – |
| O=S(=O)(/C=C/c1cc(Br)cs1)Cc1ccc(F)cc1 [Example 13, (E)-4-Bromo-2-thiopheneethenyl-4-fluorobenzylsulfone] | 5 to 10 | 5 to 10 | 5 to 10 | 5 to 10 | – | – | – | – |
| O=S(=O)(/C=C/c1cc(Br)cs1)Cc1ccc(Cl)cc1 [Example 14, (E)-4-Bromo-2-thiopheneethenyl-4-chlorobenzylsulfone] | 5 to 10 | 5 to 10 | 5 to 10 | 5 to 10 | – | – | – | – |
| O=S(=O)(/C=C/c1cc(Br)cs1)Cc1ccc(Br)cc1 [Example 15, (E)-4-Bromo-2-thiopheneethenyl-4-bromobenzylsulfone] | 5 to 10 | 5 to 10 | 5 to 10 | 5 to 10 | – | – | – | – |
| O=S(=O)(/C=C/c1ccc(Br)s1)Cc1ccc(F)cc1 [Example 16, (E)-5-Bromo-2-thiopheneethenyl-4-fluorobenzylsulfone] | 5 to 10 | 5 to 10 | 5 to 10 | 5 to 10 | – | – | – | – |
| O=S(=O)(/C=C/c1ccc(Br)s1)Cc1ccc(Cl)cc1 [Example 17, (E)-5-Bromo-2-thiopheneethenyl-4-chlorobenzylsulfone] | 5 to 10 | 5 to 10 | 5 to 10 | 5 to 10 | – | – | – | – |
| O=S(=O)(/C=C/c1ccc(Br)s1)Cc1ccc(Br)cc1 [Example 18, (E)-5-Bromo-2-thiopheneethenyl4-bromobenzylsulfone] | 5 to 10 | 5 to 10 | 5 to 10 | 5 to 10 | – | – | – | – |

| SMILES | cytotoxicity [1] [%] | cytotoxicity [2] [%] | cytotoxicity [3] [%] | cytotoxicity [4] [%] | percent cell death (% Death), DLD-1 [1] | percent cell death (% Death), DU145 [2] | percent cell death (% Death), BT20 [3] | percent cell death (% Death), H157 [4] |
| --- | --- | --- | --- | --- | --- | --- | --- | --- |
| O=S(=O)(/C=C/c1ccsc1)Cc1ccc(F)cc1 [Example 22, (E)-3-Thiopheneethenyl-4-fluorobenzylsulfone] | 5 to 10 | 5 to 10 | 5 to 10 | 5 to 10 | – | – | – | – |
| O=S(=O)(/C=C/c1ccsc1)Cc1ccc(Cl)cc1 [Example 23, (E)-3-Thiopheneethenyl-4-chlorobenzylsulfone] | 40 to 50 | 40 to 50 | 40 to 50 | 40 to 50 | – | – | – | – |
| O=S(=O)(/C=C/c1ccsc1)Cc1ccc(Br)cc1 [Example 24, (E)-3-Thiopheneethenyl-4-bromobenzylsulfone] | 40 to 50 | 40 to 50 | 40 to 50 | 40 to 50 | – | – | – | – |
| O=S(=O)(/C=C/c1ccsc1)Cc1ccc(I)cc1 [Example 25, (E)-3-Thiopheneethenyl-4-iodobenzylsulfone] | 10 to 15 | 10 to 15 | 10 to 15 | 10 to 15 | – | – | – | – |
| Cc1ccc(CS(=O)(=O)/C=C/c2ccsc2)cc1 [Example 26, (E)-3-Thiopheneethenyl-4-methylbenzylsulfone] | 5 to 10 | 5 to 10 | 5 to 10 | 5 to 10 | – | – | – | – |
| COc1ccc(CS(=O)(=O)/C=C/c2ccsc2)cc1 [Example 27, (E)-3-Thiopheneethenyl-4-methoxybenzylsulfone] | 50 to 60 | 50 to 60 | 50 to 60 | 50 to 60 | – | – | – | – |
| O=S(=O)(/C=C/c1ccsc1)Cc1ccc(OC(F)(F)F)cc1 [Example 28, (E)-3-Thiopheneethenyl-4-trifloromethoxylbenzylsulfone] | – | – | – | – | + ((+)=5-10%) | + ((+)=5-10%) | + ((+)=5-10%) | + ((+)=5-10%) |
| O=S(=O)(/C=C/c1ccsc1)Cc1ccc(Cl)cc1Cl [Example 29, (E)-3-Thiopheneethenyl-2,4-dichlorobenzylsulfone] | 50 to 60 | 50 to 60 | 50 to 60 | 50 to 60 | – | – | – | – |
| O=S(=O)(/C=C/c1ccsc1)Cc1ccc(Cl)c(Cl)c1 [Example 30, (E)-3-Thiopheneethenyl-3,4-dichlorobenzylsulfone] | 5 to 10 | 5 to 10 | 5 to 10 | 5 to 10 | – | – | – | – |
| N#Cc1ccc(CS(=O)(=O)/C=C/c2ccsc2)cc1 [Example 31, (E)-3-Thiopheneethenyl-4-cyanobenzylsulfone] | 5 to 10 | 5 to 10 | 5 to 10 | 5 to 10 | – | – | – | – |
| O=[N+]([O-])c1ccc(CS(=O)(=O)/C=C/c2ccsc2)cc1 [Example 32, (E)-3-Thiopheneethenyl4-nitrobenzylsulfone] | 5 to 10 | 5 to 10 | 5 to 10 | 5 to 10 | – | – | – | – |
| O=S1(=O)C=CC(/C=C/S(=O)(=O)Cc2ccc(F)cc2)=C1 [Example 33, (E)-3-Thiophene-1,1-dioxoethenyl-4-fluorobenzylsulfone] | – | – | – | – | + ((+)=5-10%) | + ((+)=5-10%) | + ((+)=5-10%) | + ((+)=5-10%) |
| O=S1(=O)C=CC(/C=C/S(=O)(=O)Cc2ccc(Cl)cc2)=C1 [Example 34, (E)-3-Thiophene-1,1-dioxoethenyl-4chlorobenzylsulfone] | – | – | – | – | + ((+)=5-10%) | + ((+)=5-10%) | + ((+)=5-10%) | + ((+)=5-10%) |
| O=S1(=O)C=CC(/C=C/S(=O)(=O)Cc2ccc(Br)cc2)=C1 [Example 35, (E)-3-Thiophene-1,1-dioxoethenyl-4-bromobenzylsulfone] | – | – | – | – | + ((+)=5-10%) | + ((+)=5-10%) | + ((+)=5-10%) | + ((+)=5-10%) |
| O=[N+]([O-])c1ccccc1/C=C/S(=O)(=O)Cc1cccc2ccccc12 [Example 71, (E)-2-Nitrostyryl-1-(naphthylmethyl)sulfone] | – | 40 to 50 | 40 to 50 | – | – | – | – | – |
| O=[N+]([O-])c1cccc(/C=C/S(=O)(=O)Cc2cccc3ccccc23)c1 [Example 72, (E)-3-Nitrostyryl-1-(naphthylmethyl)sulfone] | – | 5 to 10 | 5 to 10 | – | – | – | – | – |
